Data: patent US20210070748A1, “INHIBITORS OF BRUTONS TYROSINE KINASE” (Pharmacyclics LLC, priority 2015, published 2021)

What was measured:
Type in all cases: biochemical
LCK = LCK (Homo sapiens, UniProt P06239); assay: Inhibition of a panel of kinases, in vitro HotSpot kinase assay: LCK; details: D-compounds panel data; 1 μM ATP; read-out: IC50 LCK
SRC = SRC (Homo sapiens, UniProt P12931); assay: Inhibition of a panel of kinases, in vitro HotSpot kinase assay: SRC; details: D-compounds panel data; 1 μM ATP
Sequence of SRC (P12931 whole entry): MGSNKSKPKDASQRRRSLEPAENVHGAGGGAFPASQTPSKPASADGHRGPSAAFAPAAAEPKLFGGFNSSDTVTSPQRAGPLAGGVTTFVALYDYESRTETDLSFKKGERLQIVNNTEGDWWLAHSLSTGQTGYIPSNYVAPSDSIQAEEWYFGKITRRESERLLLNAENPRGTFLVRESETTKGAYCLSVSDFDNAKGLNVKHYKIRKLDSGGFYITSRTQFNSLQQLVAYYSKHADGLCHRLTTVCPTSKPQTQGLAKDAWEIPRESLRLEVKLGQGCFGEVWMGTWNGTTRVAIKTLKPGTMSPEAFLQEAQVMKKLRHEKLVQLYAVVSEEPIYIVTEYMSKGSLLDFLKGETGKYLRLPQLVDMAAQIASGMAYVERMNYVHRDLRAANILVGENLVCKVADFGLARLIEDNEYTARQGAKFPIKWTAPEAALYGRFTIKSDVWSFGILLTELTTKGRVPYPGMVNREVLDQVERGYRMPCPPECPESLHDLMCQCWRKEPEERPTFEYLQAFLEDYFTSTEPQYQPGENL
Experimental: (§1) The degree of inhibition of a panel of kinases is determined using the in vitro HotSpot kinase assay (purified enzymes, ^33P-ATP, an appropriate substrate and 1 μM ATP).

TEC = biological target: T1, TEC (Homo sapiens, UniProt P42680); assay: Inhibition of a panel of kinases, in vitro HotSpot kinase assay: TEC; details: D-compounds panel data; 1 μM ATP
T1 sequence (P42680 1-631): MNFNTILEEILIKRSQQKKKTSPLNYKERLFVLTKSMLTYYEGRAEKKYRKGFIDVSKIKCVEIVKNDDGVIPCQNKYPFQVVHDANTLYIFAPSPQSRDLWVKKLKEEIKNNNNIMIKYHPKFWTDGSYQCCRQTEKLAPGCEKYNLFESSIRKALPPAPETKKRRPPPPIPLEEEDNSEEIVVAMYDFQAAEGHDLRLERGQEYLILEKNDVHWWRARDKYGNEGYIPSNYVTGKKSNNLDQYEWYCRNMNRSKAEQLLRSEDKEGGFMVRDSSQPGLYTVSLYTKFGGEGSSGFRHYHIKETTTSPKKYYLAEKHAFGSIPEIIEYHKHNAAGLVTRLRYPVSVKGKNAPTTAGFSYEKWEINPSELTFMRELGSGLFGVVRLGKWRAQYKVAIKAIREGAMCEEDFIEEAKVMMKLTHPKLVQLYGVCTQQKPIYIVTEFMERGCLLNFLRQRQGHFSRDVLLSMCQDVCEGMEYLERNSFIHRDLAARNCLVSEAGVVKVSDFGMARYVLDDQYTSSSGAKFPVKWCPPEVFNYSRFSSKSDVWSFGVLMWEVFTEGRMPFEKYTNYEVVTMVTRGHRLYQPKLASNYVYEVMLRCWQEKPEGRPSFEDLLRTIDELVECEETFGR
Experimental: as §1

EGFR = EGFR (Homo sapiens, UniProt P00533); assay: Inhibition of a panel of kinases, in vitro HotSpot kinase assay: EGFR; details: D-compounds panel data; 1 μM ATP
Sequence of EGFR (P00533 25-1210): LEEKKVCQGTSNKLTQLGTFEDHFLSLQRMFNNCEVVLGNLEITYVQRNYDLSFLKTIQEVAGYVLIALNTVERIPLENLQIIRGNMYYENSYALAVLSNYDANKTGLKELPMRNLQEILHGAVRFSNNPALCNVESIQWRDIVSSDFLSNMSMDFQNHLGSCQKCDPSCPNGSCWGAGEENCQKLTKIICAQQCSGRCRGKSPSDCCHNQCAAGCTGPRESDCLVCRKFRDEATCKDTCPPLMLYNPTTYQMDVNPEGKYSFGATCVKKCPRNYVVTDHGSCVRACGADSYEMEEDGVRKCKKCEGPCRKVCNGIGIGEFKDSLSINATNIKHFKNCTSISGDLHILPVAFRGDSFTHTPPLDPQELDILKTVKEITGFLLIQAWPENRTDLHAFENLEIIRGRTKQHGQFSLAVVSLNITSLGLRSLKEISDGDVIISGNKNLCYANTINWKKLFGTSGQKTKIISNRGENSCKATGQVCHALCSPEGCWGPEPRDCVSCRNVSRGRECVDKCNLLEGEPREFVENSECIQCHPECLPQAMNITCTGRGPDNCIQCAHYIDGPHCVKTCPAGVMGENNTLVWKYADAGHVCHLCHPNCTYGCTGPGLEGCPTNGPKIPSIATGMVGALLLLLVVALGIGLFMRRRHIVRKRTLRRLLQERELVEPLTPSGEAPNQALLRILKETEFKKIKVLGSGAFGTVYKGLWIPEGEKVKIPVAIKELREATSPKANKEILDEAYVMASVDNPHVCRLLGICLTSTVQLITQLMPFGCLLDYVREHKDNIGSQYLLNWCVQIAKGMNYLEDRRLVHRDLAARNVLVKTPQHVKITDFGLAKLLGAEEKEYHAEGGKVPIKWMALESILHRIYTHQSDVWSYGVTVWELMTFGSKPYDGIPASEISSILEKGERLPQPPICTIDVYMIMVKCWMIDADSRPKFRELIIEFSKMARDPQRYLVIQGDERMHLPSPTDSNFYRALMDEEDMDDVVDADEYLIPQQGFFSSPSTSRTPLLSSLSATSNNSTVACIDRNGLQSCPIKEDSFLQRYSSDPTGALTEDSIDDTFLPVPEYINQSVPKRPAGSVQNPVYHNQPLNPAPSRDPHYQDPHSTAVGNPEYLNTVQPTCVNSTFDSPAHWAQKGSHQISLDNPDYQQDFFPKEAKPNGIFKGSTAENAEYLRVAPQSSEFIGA
Experimental: as §1

JAK3 = biological target: T2, JAK3 (Homo sapiens, UniProt P52333); assay: Inhibition of a panel of kinases, in vitro HotSpot kinase assay: JAK3; details: D-compounds panel data; 1 μM ATP; read-out: IC50 JAK3
T2 sequence (P52333 1-1124): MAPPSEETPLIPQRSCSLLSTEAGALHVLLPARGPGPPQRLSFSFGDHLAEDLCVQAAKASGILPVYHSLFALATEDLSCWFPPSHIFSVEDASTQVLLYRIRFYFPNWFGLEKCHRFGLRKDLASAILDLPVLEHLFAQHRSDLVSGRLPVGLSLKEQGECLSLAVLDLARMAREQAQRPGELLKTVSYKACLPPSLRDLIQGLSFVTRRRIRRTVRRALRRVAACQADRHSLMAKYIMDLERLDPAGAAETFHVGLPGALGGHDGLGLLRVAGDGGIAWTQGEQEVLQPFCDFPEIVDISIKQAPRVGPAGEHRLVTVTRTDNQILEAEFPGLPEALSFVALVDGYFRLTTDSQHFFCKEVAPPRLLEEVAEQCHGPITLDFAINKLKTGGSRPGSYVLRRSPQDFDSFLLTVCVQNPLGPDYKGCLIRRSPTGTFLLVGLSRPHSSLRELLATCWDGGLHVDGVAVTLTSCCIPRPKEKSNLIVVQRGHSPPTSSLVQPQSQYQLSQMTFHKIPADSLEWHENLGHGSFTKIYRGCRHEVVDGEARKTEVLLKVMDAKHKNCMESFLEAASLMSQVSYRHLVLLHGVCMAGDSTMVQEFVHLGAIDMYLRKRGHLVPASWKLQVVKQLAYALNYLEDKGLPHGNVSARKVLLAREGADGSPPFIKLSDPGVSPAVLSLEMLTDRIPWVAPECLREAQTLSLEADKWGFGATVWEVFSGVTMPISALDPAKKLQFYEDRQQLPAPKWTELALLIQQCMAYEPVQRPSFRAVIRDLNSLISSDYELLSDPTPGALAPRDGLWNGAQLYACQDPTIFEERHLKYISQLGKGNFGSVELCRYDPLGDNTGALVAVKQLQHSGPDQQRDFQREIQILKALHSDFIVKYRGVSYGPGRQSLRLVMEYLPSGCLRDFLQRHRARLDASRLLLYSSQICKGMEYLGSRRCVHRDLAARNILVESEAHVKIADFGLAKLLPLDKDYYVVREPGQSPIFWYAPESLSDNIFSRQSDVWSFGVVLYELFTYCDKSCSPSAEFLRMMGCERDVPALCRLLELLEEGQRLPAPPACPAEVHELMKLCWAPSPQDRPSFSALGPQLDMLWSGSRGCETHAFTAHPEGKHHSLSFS

Sequence of LCK (P06239 whole entry): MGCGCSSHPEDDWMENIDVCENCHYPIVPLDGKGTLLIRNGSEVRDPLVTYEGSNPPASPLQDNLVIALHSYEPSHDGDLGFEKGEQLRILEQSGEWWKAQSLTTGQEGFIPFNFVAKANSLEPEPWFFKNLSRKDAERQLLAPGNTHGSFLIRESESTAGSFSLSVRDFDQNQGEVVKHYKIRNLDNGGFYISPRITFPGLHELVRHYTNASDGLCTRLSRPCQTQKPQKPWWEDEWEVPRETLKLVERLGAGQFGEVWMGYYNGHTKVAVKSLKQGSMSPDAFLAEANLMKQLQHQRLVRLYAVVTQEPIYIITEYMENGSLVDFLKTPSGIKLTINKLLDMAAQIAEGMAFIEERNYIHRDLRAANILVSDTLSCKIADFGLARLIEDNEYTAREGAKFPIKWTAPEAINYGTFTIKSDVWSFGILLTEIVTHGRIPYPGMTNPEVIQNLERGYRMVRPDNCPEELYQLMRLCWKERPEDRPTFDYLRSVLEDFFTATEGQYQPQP

SMILES | IC50 (LCK) [nM] | IC50 (SRC) [nM] | IC50 (TEC) [nM] | IC50 (EGFR) [nM] | IC50 (JAK3) [nM]
C[C@@H]1[C@H](NC(=O)c2ccc(C3CC3)cc2)CCCN1c1cnc(C(N)=O)c(Nc2cnn(C)c2F)n1 [Example D-290, 5-[(2R,3R)-3-(4-cyclopropylbenzamido)-2-methylpiperidin-1-yl]-3-[(5-fluoro-1-methyl-1H-pyrazol-4-yl)amino]pyrazine-2-carboxamide] | 1000 to 10000 | 1000 to 10000 | 100 to 1000 | 1000 to 10000 | > 10000
C[C@@H]1[C@H](NC(=O)c2ccc(C3CC3)cc2)CCCN1c1cnc(C(N)=O)c(Nc2cc(C3CCN(C4CCCC4)CC3)ns2)n1 [Example D-311, 3-{[3-(1-cyclopentylpiperidin-4-yl)-1,2-thiazol-5-yl]amino}-5-[(2R,3R)-3-(4-cyclopropylbenzamido)-2-methylpiperidin-1-yl]pyrazine-2-carboxamide] | 10 to 100 | 10 to 100 | 10 to 100 | 1000 to 10000 | 100 to 1000
C[C@@H]1[C@H](NC(=O)c2ccc(C3CC3)cc2)CCCN1c1cnc(C(N)=O)c(Nc2cc(C3CCOCC3)ns2)n1 [Example D-310, 5-[(2R,3R)-3-(4-cyclopropylbenzamido)-2-methylpiperidin-1-yl]-3-{[3-(oxan-4-yl)-1,2-thiazol-5-yl]amino}pyrazine-2-carboxamide] | 10 to 100 | 10 to 100 | ≤ 10 | 1000 to 10000 | 100 to 1000
C[C@@H]1[C@H](NC(=O)c2ccc(N(C)C)cc2)CCCN1c1cnc(C(N)=O)c(Nc2cnn(C)c2)n1 [Example D-24, 5-[(2R,3R)-3-[4-(dimethylamino)benzamido]-2-methylpiperidin-1-yl]-3-[(1-methyl-1H-pyrazol-4-yl)amino]pyrazine-2-carboxamide] | 10 to 100 | 100 to 1000 | ≤ 10 | 1000 to 10000 | 1000 to 10000
C[C@@H]1[C@H](NC(=O)c2ccc(C3CC3)cc2)CCCN1c1cnc(C(N)=O)c(Nc2cnn(CC#N)c2)n1 [Example D-287, 3-{[1-(cyanomethyl)-1H-pyrazol-4-yl]amino}-5-[(2R,3R)-3-(4-cyclopropylbenzamido)-2-methylpiperidin-1-yl]pyrazine-2-carboxamide] | 100 to 1000 | 100 to 1000 | ≤ 10 | > 10000 | 1000 to 10000
C[C@@H]1[C@H](NC(=O)c2cc(C3CC3)n(C)n2)CCCN1c1cnc(C(N)=O)c(Nc2cnn(C)c2)n1 [Example D-253, 5-[(2R,3R)-3-(5-cyclopropyl-1-methyl-1H-pyrazole-3-amido)-2-methylpiperidin-1-yl]-3-[(1-methyl-1H-pyrazol-4-yl)amino]pyrazine-2-carboxamide] | 100 to 1000 | 10 to 100 | ≤ 10 | 100 to 1000 | 100 to 1000
CC(C)n1nnc2cc(C(=O)N[C@@H]3CCCN(c4cnc(C(N)=O)c(Nc5cnn(C)c5)n4)[C@@H]3C)ccc21 [Example D-255, N-[(2R,3R)-1-{5-carbamoyl-6-[(1-methyl-i H-pyrazol-4-yl)amino]pyrazin-2-yl}-2-methylpiperidin-3-yl]-1-(propan-2-yl)-1H-1,2,3-benzotriazole-5-carboxamide] | 100 to 1000 | 10 to 100 | ≤ 10 | 1000 to 10000 | 100 to 1000
C[C@@H]1[C@H](NC(=O)c2ccc(C3CC3)cc2Cl)CCCN1c1cnc(C(N)=O)c(Nc2cnn(C)c2)n1 [Example D-20, 5-[(2R,3R)-3-(2-chloro-4-cyclopropylbenzamido)-2-methylpiperidin-1-yl]-3-[(1-methyl-1H-pyrazol-4-yl)amino]pyrazine-2-carboxamide] | 100 to 1000 | 100 to 1000 | 10 to 100 | 1000 to 10000 | 1000 to 10000
CCOCCOc1ccc(Nc2nc(N3CCC[C@@H](NC(=O)c4ccc(C5CC5)cc4)[C@H]3C)cnc2C(N)=O)cc1 [Example D-299, 5-[(2R,3R)-3-(4-cyclopropylbenzamido)-2-methylpiperidin-1-yl]-3-{[4-(2-ethoxyethoxy)phenyl]amino}pyrazine-2-carboxamide] | > 10000 | 1000 to 10000 | 10 to 100 | > 10000 | > 10000
CC(=O)N1CCC(n2cc(Nc3nc(N4CCC[C@@H](NC(=O)c5ccc(C6CC6)cc5)[C@H]4C)cnc3C(N)=O)cn2)CC1 [Example D-283, 3-{[1-(1-acetylpiperidin-4-yl)-1H-pyrazol-4-yl]amino}-5-[(2R,3R)-3-(4-cyclopropylbenzamido)-2-methylpiperidin-1-yl]pyrazine-2-carboxamide] | 10 to 100 | 10 to 100 | ≤ 10 | 1000 to 10000 | 1000 to 10000
C[C@@H]1[C@H](NC(=O)N(C)C)CCCN1c1nnc(C(N)=O)c(Nc2cnn(C)c2)n1 [Example D-286, 3-[(2R,3R)-3-[(dimethylcarbamoyl)amino]-2-methylpiperidin-1-yl]-5-[(1-methyl-1H-pyrazol-4-yl)amino]-1,2,4-triazine-6-carboxamide] | 100 to 1000 | 10 to 100 | 10 to 100 | 1000 to 10000 | 1000 to 10000
C[C@@H]1[C@H](NC(=O)c2ccc(C3CC3)cc2)CCCN1c1cnc(C(N)=O)c(Nc2cnn(C3CCN(C(=O)C4(C)COC4)CC3)c2)n1 [Example D-289, 5-[(2R,3R)-3-(4-cyclopropylbenzamido)-2-methylpiperidin-1-yl]-3-({1-[1-(3-methyloxetane-3-carbonyl)piperidin-4-yl]-1H-pyrazol-4-yl}amino)pyrazine-2-carboxamide] | 10 to 100 | ≤ 10 | ≤ 10 | 100 to 1000 | 1000 to 10000
C[C@@H]1[C@H](NC(=O)c2ccc(C3COC3)cc2)CCCN1c1cnc(C(N)=O)c(Nc2cnn(C)c2)n1 [Example D-23, 3-[(1-methyl-1H-pyrazol-4-yl)amino]-5-[(2R,3R)-2-methyl-3-[4-(oxetan-3-yl)benzamido]piperidin-1-yl]pyrazine-2-carboxamide] | 100 to 1000 | 10 to 100 | ≤ 10 | 1000 to 10000 | 100 to 1000
C[C@@H]1[C@H](NC(=O)c2coc(C3CC3)n2)CCCN1c1cnc(C(N)=O)c(Nc2cnn(C)c2)n1 [Example D-257, 5-[(2R,3R)-3-(2-cyclopropyl-1,3-oxazole-4-amido)-2-methylpiperidin-1-yl]-3-[(1-methyl-1H-pyrazol-4-yl)amino]pyrazine-2-carboxamide] | 10 to 100 | 10 to 100 | ≤ 10 | 100 to 1000 | 100 to 1000
C[C@@H]1[C@H](NC(=O)c2ccc(C(C)(C)C)cc2)CCCN1c1nnc(C(N)=O)c(Nc2cnn(C)c2)n1 [Example D-285, 3-[(2R,3R)-3-(4-tert-butylbenzamido)-2-methylpiperidin-1-yl]-5-[(1-methyl-1H-pyrazol-4-yl)amino]-1,2,4-triazine-6-carboxamide] | 10 to 100 | 10 to 100 | ≤ 10 | 1000 to 10000 | 100 to 1000
